Experimental data from patent US11434242B2, “Dopamine-b-hydroxylase inhibitors” (BIAL-PORTELA & Cª, S.A., priority 2017, dated 2022).
Where a name gives a salt, the structure may show the parent alone.

How the values were obtained:
DβH = molecular target: T1, DβH (Homo sapiens, UniProt P09172); assay: DβH inhibition assay in SK-N-SH cellular homogenates (tyramine to octopamine); type: biochemical; conditions: SK-N-SH cell homogenate; for SKNSH (0.1 μM), activity in % of control: inhibitor 0.1 μM; for SKNSH (1 μM), activity in % of control: inhibitor 1 μM
T1 construct: cellular homogenate (75 μg total protein); host or cells: SK-N-SH cells (homogenate)
T1 sequence (P09172 1-617): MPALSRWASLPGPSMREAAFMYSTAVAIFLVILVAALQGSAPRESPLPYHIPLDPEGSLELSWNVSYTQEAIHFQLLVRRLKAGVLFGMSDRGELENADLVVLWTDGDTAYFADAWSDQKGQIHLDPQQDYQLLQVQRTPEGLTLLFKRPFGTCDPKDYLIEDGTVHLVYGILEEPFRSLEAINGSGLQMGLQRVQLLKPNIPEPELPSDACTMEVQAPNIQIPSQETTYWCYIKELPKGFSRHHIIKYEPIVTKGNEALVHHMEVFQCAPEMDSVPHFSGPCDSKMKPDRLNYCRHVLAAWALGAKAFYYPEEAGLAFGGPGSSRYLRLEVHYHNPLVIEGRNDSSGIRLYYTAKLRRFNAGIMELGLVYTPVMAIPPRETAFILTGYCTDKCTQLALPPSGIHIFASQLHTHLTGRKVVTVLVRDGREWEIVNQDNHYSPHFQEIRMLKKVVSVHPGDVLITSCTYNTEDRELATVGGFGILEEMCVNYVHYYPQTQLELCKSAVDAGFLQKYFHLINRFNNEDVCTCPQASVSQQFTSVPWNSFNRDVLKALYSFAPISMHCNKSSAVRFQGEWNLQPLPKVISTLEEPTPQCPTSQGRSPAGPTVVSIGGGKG

[1] = molecular target: T2, Dopamine beta hydroxylase (Homo sapiens, UniProt P09172); assay: Dopamine beta hydroxylase activity in human plasma; type: biochemical; conditions: for Plasma (0.01 μM), activity in % of control: inhibitor 0.01 μM; for Plasma (0.1 μM), activity in % of control: inhibitor 0.1 μM; for Plasma (1 μM), activity in % of control: inhibitor 1 μM
T2 construct: 125 μl of plasma; tissue Instituto Português do Sangue Transplantação; host or cells: human plasma from healthy donors
T2 sequence (P09172 40-617 limits assumed): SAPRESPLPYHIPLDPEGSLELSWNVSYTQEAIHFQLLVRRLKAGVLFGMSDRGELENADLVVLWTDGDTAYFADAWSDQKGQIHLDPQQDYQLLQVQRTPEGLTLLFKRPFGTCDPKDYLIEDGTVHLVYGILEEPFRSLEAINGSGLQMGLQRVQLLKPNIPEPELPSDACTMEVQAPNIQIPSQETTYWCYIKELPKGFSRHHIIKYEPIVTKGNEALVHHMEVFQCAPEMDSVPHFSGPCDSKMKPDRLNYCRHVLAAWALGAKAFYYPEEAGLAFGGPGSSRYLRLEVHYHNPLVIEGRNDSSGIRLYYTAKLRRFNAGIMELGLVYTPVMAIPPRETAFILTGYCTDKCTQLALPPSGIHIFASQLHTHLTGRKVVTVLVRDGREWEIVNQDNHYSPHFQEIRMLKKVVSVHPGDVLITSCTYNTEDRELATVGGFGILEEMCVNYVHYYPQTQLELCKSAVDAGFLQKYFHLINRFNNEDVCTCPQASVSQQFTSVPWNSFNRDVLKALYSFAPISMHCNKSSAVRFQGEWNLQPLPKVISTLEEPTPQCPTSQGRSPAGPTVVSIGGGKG
In short: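 Healthy-donor human plasma pre-incubated 10 min at 37° C with compound at final 10, 100 or 1000 nM in pH 5.0 acetate buffer with ascorbate, fumarate, pargyline, N-ethylmaleimide, catalase and copper sulfate. Tyramine substrate then added for 45 min; octopamine formed was isolated by SCX cartridge, periodate-converted and read at 330 nm; activity given as % control.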

SMILES	SKNSH (0.1 μM), activity in % of control (DβH)	SKNSH (1 μM), activity in % of control (DβH)	Plasma (0.01 μM), activity in % of control [1]	Plasma (0.1 μM), activity in % of control [1]	Plasma (1 μM), activity in % of control [1]
O=C(O)Cc1[nH]c(=S)n2c1C[C@@H](c1c(F)c(F)cc(F)c1F)C2 [Example 10, (S)-2-(6-(2,3,5,6-tetrafluorophenyl)-3-thioxo-3,5,6,7-tetrahydro-2H-pyrrolo[1,2-c]imidazol-1-yl)acetic Acid]	46.4 % of control	2.1 % of control			
O=C(O)c1[nH]c(=S)n2c1C[C@@H](c1cc(F)cc(F)c1)C2 [Example 43, (S)-6-(3,5-difluorophenyl)-3-thioxo-3,5,6,7-tetrahydro-2H-pyrrolo[1,2-c]imidazole-1-carboxylic Acid]		45.6 % of control			
OCc1[nH]c(=S)n2c1[C@@H]1C[C@]1(c1cc(F)cc(F)c1)C2 [Example 50, (5aS,6aR)-5a-(3,5-difluorophenyl)-1-(hydroxymethyl)-5,5a,6,6a-tetrahydrocyclopropa[3,4]pyrrolo[1,2-c]imidazole-3(2H)-thione]	57.5 % of control	1.8 % of control			
NCCc1[nH]c(=S)n2c1[C@@H]1C[C@]1(c1cc(F)cc(F)c1)C2 [Example 35, (5aS,6aR)-1-(2-aminoethyl)-5a-(3,5-difluorophenyl)-5,5a,6,6a-tetrahydrocyclopropa[3,4]pyrrolo[1,2-c]imidazole-3(2H)-thione Hydrochloride]		45.9 % of control			
CCOC(=O)Cc1[nH]c(=S)n2c1C[C@@H](c1cc(F)cc(F)c1)C2 [Example 1, (S)-ethyl 2-(6-(3,5-difluorophenyl)-3-thioxo-3,5,6,7-tetrahydro-2H-pyrrolo[1,2-c]imidazol-1-yl)acetate]		37.9 % of control			
Cn1c(CC(=O)NC2COC2)c2n(c1=S)C[C@@H](c1c(F)c(F)cc(F)c1F)C2 [Example 394, (R)-2-(2-methyl-6-(2,3,5,6-tetrafluorophenyl)-3-thioxo-2,5,6,7-tetrahydro-3H-pyrrolo[1,2-c]imidazol-1-yl)-N-(oxetan-3-yl)acetamide]			92.1 % of control	47.6 % of control	
O=C(Cc1[nH]c(=S)n2c1[C@@H]1C[C@]1(c1cc(Br)ccc1F)C2)NC1CC1 [Example 154, 2-((5aS,6aR)-5a-(5-bromo-2-fluorophenyl)-3-thioxo-2,3,5,5a,6,6a-hexahydrocyclopropa[3,4]pyrrolo[1,2-c]imidazol-1-yl)-N-cyclopropylacetamide]			89.5 % of control	38.6 % of control	
O=C(Cc1[nH]c(=S)n2c1C[C@H](c1c(F)ccc(F)c1F)C2)N[C@@H]1CCOC1 [Example 368, 2-((R)-6-(2,3,6-trifluorophenyl)-3-thioxo-2,5,6,7-tetrahydro-3H-pyrrolo[1,2-c]imidazol-1-yl)-N—((R)-tetrahydrofuran-3-yl)acetamide]			104.4 % of control	63.1 % of control	
Cn1c(CCC(N)=O)c2n(c1=S)C[C@@H](c1c(F)cccc1F)C2 [Example 263, (R)-3-(6-(2,6-difluorophenyl)-2-methyl-3-thioxo-2,5,6,7-tetrahydro-3H-pyrrolo[1,2-c]imidazol-1-yl)propanamide]			103.3 % of control	87.1 % of control	
Cl.Fc1ccc(Cl)c(F)c1[C@@H]1Cc2c(CCN3CCOCC3)[nH]c(=S)n2C1 [Example 196, (S)-6-(3-chloro-2,6-difluorophenyl)-1-(2-morpholinoethyl)-2,5,6,7-tetrahydro-3H-pyrrolo[1,2-c]imidazole-3-thione Hydrochloride]			102.2 % of control	68.6 % of control	
Cn1c(CCC(=O)N2CCCC2)c2n(c1=S)C[C@@H](c1c(F)c(F)cc(F)c1F)C2 [Example 261, (R)-3-(2-methyl-6-(2,3,5,6-tetrafluorophenyl)-3-thioxo-2,5,6,7-tetrahydro-3H-pyrrolo[1,2-c]imidazol-1-yl)-1-(pyrrolidin-1-yl)propan-1-one]			86.2 % of control	31.8 % of control	
F.Fc1ccc(Br)cc1[C@]12C[C@H]1c1c(CCNc3ccccn3)[nH]c(=S)n1C2 [Example 192, (5aS,6aR)-5a-(5-bromo-2-fluorophenyl)-1-(2-(pyridin-2-ylamino)ethyl)-5,5a,6,6a-tetrahydrocyclopropa[3,4]pyrrolo[1,2-c]imidazole-3(2H)-thione hydrofluoride]			73.4 % of control	12.1 % of control	
Cn1c(CC(=O)Nc2ncco2)c2n(c1=S)C[C@H](c1c(F)ccc(Cl)c1F)C2 [Example 317, (S)-2-(6-(3-chloro-2,6-difluorophenyl)-2-methyl-3-thioxo-2,5,6,7-tetrahydro-3H-pyrrolo[1,2-c]imidazol-1-yl)-N-(oxazol-2-yl)acetamide]			45.6 % of control	5.3 % of control	
[2H]C([2H])([2H])n1c(CC(=O)NC2CCOCC2)c2n(c1=S)C[C@H](c1c(F)ccc(Cl)c1F)C2 [Example 469, (S)-2-(6-(3-chloro-2,6-difluorophenyl)-2-(methyl-d)-3-thioxo-2,5,6,7-tetrahydro-3H-pyrrolo[1,2-c]imidazol-1-yl)-N-(tetrahydro-2H-pyran-4-yl)acetamide]			33.7 % of control	1.5 % of control	
CN(C(=O)Cc1c2n(c(=S)n1C)C[C@@]1(c3cc(Cl)ccc3F)C[C@@H]21)[C@@H]1CCOC1 [Example 468, 2-((5aS,6aR)-5a-(5-chloro-2-fluorophenyl)-2-methyl-3-thioxo-2,3,5,5a,6,6a-hexahydrocyclopropa[3,4]pyrrolo[1,2-c]imidazol-1-yl)-N-methyl-N—((R)-tetrahydrofuran-3-yl)acetamide]			65.8 % of control	13.1 % of control	
O=C(Cc1[nH]c(=S)n2c1C[C@H](c1c(F)c(F)cc(F)c1F)C2)N1CCC(O)CC1 [Example 82, (R)-1-(4-hydroxypiperidin-1-yl)-2-(6-(2,3,5,6-tetrafluorophenyl)-3-thioxo-2,5,6,7-tetrahydro-3H-pyrrolo[1,2-c]imidazol-1-yl)ethan-1-one]				69.2 % of control	16.6 % of control
CN(C)CCCNC(=O)Cc1[nH]c(=S)n2c1C[C@H](c1c(F)c(F)cc(F)c1F)C2.Cl [Example 71, (R)—N-(3-(dimethylamino)propyl)-2-(6-(2,3,5,6-tetrafluorophenyl)-3-thioxo-2,5,6,7-tetrahydro-3H-pyrrolo[1,2-c]imidazol-1-yl)acetamide Hydrochloride]				57.0 % of control	11.9 % of control
Cn1c(CC(=O)NC2CCCCC2)c2n(c1=S)C[C@H](c1c(F)ccc(Cl)c1F)C2 [Example 356, (S)-2-(6-(3-chloro-2,6-difluorophenyl)-2-methyl-3-thioxo-2,5,6,7-tetrahydro-3H-pyrrolo[1,2-c]imidazol-1-yl)-N-cyclohexylacetamide]			35.4 % of control	6.6 % of control	
